Results reported in patent US20260174769A1, “MACROCYCLIC COMPOUNDS AND METHODS OF USE” (AMGEN INC., priority 2022, published 2026).
Where a name gives a salt, the structure may show the parent alone.

target: His-tagged KRAS G12D protein (Homo sapiens, UniProt P01116, G12D); test: KRAS G12D TR-FRET Assay; type: binding; conditions: TR-FRET binding
Experimental: The His-tagged KRAS G12D protein (Amgen) was diluted to 20 nM in Assay Buffer (20 mM HEPES, pH 7.4, 10 mM MgCl2, 50 mM NaCl, 0.1% BSA, 0.01% Tween-20, 10 μM GDP) and 2 μL was added to the appropriate wells of the 384-well plate. The plate was incubated for 30 minutes at room temperature. Biotinylated KRPep-2d substrate (Amgen) was diluted to 20 nM in Assay Buffer and 2 μL was added to all wells and incubated for 1 hour at room temperature. Detection Reagent (0.4 nM LANCE Eu-W1024 Anti-6×His (Perkin Elmer AD0401), 5 nM streptavidin-d2 (Cisbio 610SADLA)) was prepared in Assay Buffer, then 4 μL was added to the plate and incubated for 1 hour at room temperature.

His-tagged KRAS G12D protein, sequence (P01116 1-188 isoform P01116-2 G12D): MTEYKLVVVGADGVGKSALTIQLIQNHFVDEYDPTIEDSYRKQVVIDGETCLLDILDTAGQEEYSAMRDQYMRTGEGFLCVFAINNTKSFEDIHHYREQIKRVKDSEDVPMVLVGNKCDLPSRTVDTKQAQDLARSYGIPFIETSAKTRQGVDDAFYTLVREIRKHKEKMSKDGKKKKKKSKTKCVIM

| IC50 | Compound |
| --- | --- |
| 7 nM | Fc1c2ncc3c(nc(OC[C@@]45CCCN4C[C@H](F)C5)nc13)N1CCOC[C@H](COCCCCc3c(Cl)cc4[nH]ncc4c3-2)C1 (single isomer, unassigned) [Example 136] |
| 37 nM | O=C1CCCCc2c(Cl)cccc2-c2ncc3c(nc(OC[C@@]45CCCN4C[C@H](F)C5)nc3c2F)N2CC[C@H]3CCN1[C@H]3C2 (single isomer, unassigned) [Example 162] |
| 6 nM | C[C@@]12COCCN(C1)c1nc(OC[C@H]3CC[C@@H]4COCCN43)nc3c(F)c(ncc13)-c1c(c(Cl)cc3[nH]ncc13)CCCOC(=O)O2 (single isomer, unassigned) [Example 308] |
| 4 nM | Cc1cc2[nH]ncc2c2c1CCOC(=O)O[C@H]1C[C@]3(CCCN(C3)c3nc(OC[C@@H]4CCCN4C)nc4c(F)c-2ncc34)C1 (single isomer, unassigned) [Example 326] |
| 19300 nM | CN1C(=O)COCC[C@H]2CCc3cc4[nH]ncc4c(c32)-c2ncc3c(nc(OC[C@@]45CCCN4C[C@H](F)C5)nc3c2F)N2CCC[C@@H]1C2 (single isomer, unassigned) [Example 278] |
| 10 nM | O=C1OC[C@H]2C[C@@H]2c2c(Cl)cc3[nH]ncc3c2-c2ncc3c(nc(OC[C@@]45CCCN4C[C@H](F)C5)nc3c2F)N2CCC[C@H](C2)O1 (racemic) [Example 113] |
| 1140 nM | Cc1cc2[nH]ncc2c2c1CCCCO[C@@H](C)[C@H]1CN(CCO1)c1nc(OC[C@@]34CCCN3C[C@H](F)C4)nc3c(F)c-2ncc13 (single isomer, unassigned) [Example 242] |
| 1270 nM | O=C1N[C@@H]2CCCCN(C2)c2nc(OC[C@@]34CCCN3C[C@H](F)C4)nc3c(F)c(ncc23)-c2c3c(cc4[nH]ncc24)CC[C@@H]3CCO1 (single isomer, unassigned) [Example 302] |
| 6 nM | CN1CCC[C@H]1COc1nc2c3cnc(c(F)c3n1)-c1c(c(Cl)cc3[nH]ncc13)CCCOC(=O)O[C@]1(C)COCCN2C1 (single isomer, unassigned) [Example 181] |
| 1910 nM | O=C1N[C@H]2C[C@@H](O)CN(C2)c2nc(OC[C@@]34CCCN3C[C@H](F)C4)nc3c(F)c(ncc23)-c2c(c(Cl)cc3[nH]ncc23)CCCO1 (single isomer, unassigned) [Example 285] |
| 938 nM | C[C@@]12COCCN(C1)c1nc(OC[C@@]34CCCN3C[C@H](F)C4)nc3c(F)c(ncc13)-c1c3c(cc4[nH]ncc14)CC[C@@H]3CCOC(=O)O2 (single isomer, unassigned) [Example 366] |
| 6 nM | Cc1cc2[nH]ncc2c2c1CCCC(F)C(=O)N[C@@H]1CCCCN(C1)c1nc(OC[C@@]34CCCN3C[C@H](F)C4)nc3c(F)c-2ncc13 (single isomer, unassigned) [Example 159] |
| 28 nM | C[C@H]1CCOC[C@H]2CN(CCO2)c2nc(OC[C@@]34CCCN3C[C@H](F)C4)nc3c(F)c(ncc23)-c2c(c(Cl)cc3[nH]ncc23)C1 (single isomer, unassigned) [Example 252] |
| 583 nM | Fc1c2ncc3c(nc(OC[C@@]45CCCN4C[C@H](F)C5)nc13)N1CCC[C@@H](C1)c1coc(n1)CCCc1c(Cl)cc3[nH]ncc3c1-2 (single isomer, unassigned) [Example 245] |
| 3 nM | O=C1CCCc2c(F)ccc3cccc(c23)-c2ncc3c(nc(OC[C@@]45CCCN4C[C@H](F)C5)nc3c2F)N2CC[C@H]3CCN1[C@H]3C2 (single isomer, unassigned) [Example 72] |
| 10 nM | Cc1cc2[nH]ncc2c2c1CCC[C@H](F)C(=O)N(C)[C@@H]1CCCN(C1)c1nc(OC[C@@]34CCCN3C[C@H](F)C4)nc3c(F)c-2ncc13 (single isomer, unassigned) [Example 51] |

| IC50 | Compound |
| --- | --- |
| 6 nM | Fc1c2ncc3c(nc(OC[C@@]45CCCN4C[C@H](F)C5)nc13)N1CCO[C@]3(C1)C[C@@H](C3)OCCCCc1c(Cl)cc3[nH]ncc3c1-2 (single isomer, unassigned) [Example 261] |
| 4 nM | O=C1OCC[C@@H]2CCc3cc4[nH]ncc4c(c32)-c2ncc3c(nc(OC[C@@]45CCCN4C[C@H](F)C5)nc3c2F)N2CCOC[C@H](C2)O1 (single isomer, unassigned) [Example 367] |
| 1290 nM | Cc1cc2[nH]ncc2c2c1CCCCO[C@H](C)[C@H]1CN(CCO1)c1nc(OC[C@@]34CCCN3C[C@H](F)C4)nc3c(F)c-2ncc13 (single isomer, unassigned) [Example 241] |
| 15 nM | Cc1cc2[nH]ncc2c2c1C[C@H](C)COC(=O)O[C@@H]1CCCN(C1)c1nc(OC[C@@]34CCCN3C[C@H](F)C4)nc3c(F)c-2ncc13 (single isomer, unassigned) [Example 215] |
| 10 nM | C[C@@]12COCCN(C1)c1nc(OC[C@@H]3CC[C@H]4COCCN43)nc3c(F)c(ncc13)-c1c(c(Cl)cc3[nH]ncc13)CCCOC(=O)O2 (single isomer, unassigned) [Example 309] |
| 2260 nM | O=C1OCCCc2c(Cl)cc3[nH]ncc3c2-c2ncc3c(nc(OC[C@@]45CCCN4C[C@H](F)C5)nc3c2F)N2CCOC[C@@](CF)(C2)O1 (single isomer, unassigned) [Example 310] |
| 4480 nM | Cc1cc2[nH]ncc2c2c1CCCCO[C@H](C)[C@@H]1CN(CCO1)c1nc(OC[C@@]34CCCN3C[C@H](F)C4)nc3c(F)c-2ncc13 (single isomer, unassigned) [Example 243] |
| 1510 nM | CN1CCC[C@H]1COc1nc2c3cnc(c(F)c3n1)-c1c(c(Cl)cc3[nH]ncc13)CCCOC(=O)O[C@@]1(C)COCCN2C1 (single isomer, unassigned) [Example 180] |
| 7570 nM | Cc1cc2[nH]ncc2c2c1CCCOC(=O)O[C@@]1(C)COCCN(C1)c1nc(OC[C@@H]3CCCN3C)nc3c(F)c-2ncc13 (single isomer, unassigned) [Example 182] |
| 3 nM | Fc1cc2[nH]ncc2c2c1CCCCOC[C@H]1CCCCN(C1)c1nc(OC[C@@]34CCCN3C[C@H](F)C4)nc3c(F)c-2ncc13 (single isomer, unassigned) [Example 240] |
| 8070 nM | Fc1c2ncc3c(nc(OC[C@@]45CCCN4C[C@H](F)C5)nc13)N1CCOC[C@@H](C1)c1cnn(n1)CCCc1c(Cl)cc3[nH]ncc3c1-2 (single isomer, unassigned) [Example 297] |
| 19 nM | Cc1cc2[nH]ncc2c2c1CCC[C@@H](F)C(=O)N(C)[C@@H]1CCCN(C1)c1nc(OC[C@@]34CCCN3C[C@H](F)C4)nc3c(F)c-2ncc13 (single isomer, unassigned) [Example 52] |
| 68 nM | C[C@@]12CCCN(C1)c1nc(OC[C@@]34CCCN3C[C@H](F)C4)nc3c(F)c(ncc13)-c1cc(O)cc3c1[C@H](CCCC(=O)N2)CCC3 (single isomer, unassigned) [Example 28, 2,2,2-trifluoroacetate salt] |
| 333 nM | CN1C(=O)COCC[C@@H]2CCc3cc4[nH]ncc4c(c32)-c2ncc3c(nc(OC[C@@]45CCCN4C[C@H](F)C5)nc3c2F)N2CCC[C@@H]1C2 (single isomer, unassigned) [Example 279] |
| 6 nM | [2H]C([2H])([2H])[C@@]12COCCN(C1)c1nc(OC[C@@]34CCCN3C[C@H](F)C4)nc3c(F)c(ncc13)-c1c(c(C)cc3[nH]ncc13)CCCOC(=O)O2 (single isomer, unassigned) [Example 352] |
| 3810 nM | C[C@]12CCCN(C1)c1nc(OC[C@@]34CCCN3C[C@H](F)C4)nc3c(F)c(ncc13)-c1cccc3ccc(F)c(c13)CCOC(=O)N2 (single isomer, unassigned) [Example 78] |

same assay, conditions: TR-FRET; read-out: KRAS G12D Binding IC50

| IC50 | Compound |
| --- | --- |
| 16 nM | Fc1c2ncc3c(nc(OC[C@@]45CCCN4C[C@H](F)C5)nc13)N1CCOC[C@@H](Cc3ncc(o3)CCc3c(Cl)cc4[nH]ncc4c3-2)C1 (single isomer, unassigned) [Example 376] |
| 6 nM | O[C@H]1C[C@H]2COCCCCc3c(Cl)cc4[nH]ncc4c3-c3ncc4c(nc(OC[C@@]56CCCN5C[C@H](F)C6)nc4c3F)N(C1)C2 (single isomer, unassigned) [Example 407] |
| 3960 nM | Fc1c2ncc3c(nc(OC[C@@]45CCCN4C[C@H](F)C5)nc13)N1CCO[C@@H](C1)c1coc(n1)CCCc1c(Cl)cc3[nH]ncc3c1-2 (single isomer, unassigned) [Example 389] |
| 5 nM | Fc1c2ncc3c(nc(OC[C@@]45CCCN4C[C@H](F)C5)nc13)N1CCO[C@H](C1)c1coc(n1)CCCc1c(Cl)cc3[nH]ncc3c1-2 (single isomer, unassigned) [Example 390] |
| 9 nM | CC12COCCN(C1)c1nc(OC[C@@]34CCCN3C[C@H](F)C4)nc3c(F)c(ncc13)-c1c(c(Cl)cc3[nH]ncc13)CCCc1nc2no1 (mixture of isomers) [Example 379, (1RS)-10-chloro-33-fluoro-24-(((2R,7a.S)-2-fluorotetrahydro-1H-pyrrolo[1,2-α]pyrrol-7a(5H)-yl)methoxy)-1-methyl-4,30-dioxa-3,13,14,19,23,25,27,34-octaazaheptacyclo[25.4.1.1~2,5~.1~18,22~.0~9,17~.0~12,16~.0~21,26~]tetratriaconta-2,5(34),9,11,14,16,18(33),19,21,23,25-undecaene] |
| 6 nM | Fc1c2ncc3c(nc(OC[C@@]45CCCN4C[C@H](F)C5)nc13)N1CCO[C@@H](COCC[C@@H]3C[C@@H]3c3c(Cl)cc4[nH]ncc4c3-2)C1 (single isomer, unassigned) [Example 392] |
| 21 nM | O[C@@H]1C[C@@H]2COCCCCc3c(Cl)cc4[nH]ncc4c3-c3ncc4c(nc(OC[C@@]56CCCN5C[C@H](F)C6)nc4c3F)N(C1)C2 (single isomer, unassigned) [Example 406] |
| 3 nM | O=C1CCCCc2c(Cl)cc3[nH]ncc3c2-c2ncc3c(nc(OC[C@@]45CCCN4C[C@H](F)C5)nc3c2F)N2CC[C@@H]3[C@H](C2)N1CC3(F)F (single isomer, unassigned) [Example 403] |
